PubChem BioAssay (NCI)
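Five concentrations, 48 hours, 96-well plates. Definition used: TGI = concentration required for complete inhibition of growth.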

Columns and labels:
Experiment in all cases: NCI-60 cell line screen, 48 h
NCI-H23 lung = test system: NCI-H23 lung
NCI-H460 lung = test system: NCI-H460 lung
OVCAR-5 ovarian = test system: OVCAR-5 ovarian
NCI/ADR-RES ovarian = test system: NCI/ADR-RES ovarian
UACC-62 melanoma = test system: UACC-62 melanoma
SK-MEL-2 melanoma = test system: SK-MEL-2 melanoma
SK-OV-3 ovarian = test system: SK-OV-3 ovarian
OVCAR-8 ovarian = test system: OVCAR-8 ovarian
NCI-H522 lung = test system: NCI-H522 lung
PC-3 prostate = test system: PC-3 prostate
MCF7 breast = test system: MCF7 breast
HOP-62 NSCLC = test system: HOP-62 NSCLC
UACC-257 melanoma = test system: UACC-257 melanoma
HOP-92 NSCLC = test system: HOP-92 NSCLC
K-562 leukemia = test system: K-562 leukemia
HS 578T breast = test system: HS 578T breast
ACHN renal = test system: ACHN renal
RXF 393 renal = test system: RXF 393 renal
IGROV1 ovarian = test system: IGROV1 ovarian
U251 CNS = test system: U251 CNS
COLO 205 colon = test system: COLO 205 colon
MOLT-4 leukemia = test system: MOLT-4 leukemia
TK-10 renal = test system: TK-10 renal
MDA-N = test system: MDA-N
EKVX NSCLC = test system: EKVX NSCLC
OVCAR-3 ovarian = test system: OVCAR-3 ovarian
HCT-15 colon = test system: HCT-15 colon
UO-31 renal = test system: UO-31 renal
SF-268 CNS = test system: SF-268 CNS
HCT-116 colon = test system: HCT-116 colon
BT-549 breast = test system: BT-549 breast
CCRF-CEM leukemia = test system: CCRF-CEM leukemia
SW-620 colon = test system: SW-620 colon
M14 melanoma = test system: M14 melanoma
786-0 renal = test system: 786-0 renal
RPMI-8226 leukemia = test system: RPMI-8226 leukemia
SNB-19 CNS = test system: SNB-19 CNS
HCC-2998 colon = test system: HCC-2998 colon
SF-295 CNS = test system: SF-295 CNS
MDA-MB-435 = test system: MDA-MB-435
DU-145 prostate = test system: DU-145 prostate
SK-MEL-5 melanoma = test system: SK-MEL-5 melanoma
HT29 colon = test system: HT29 colon
SNB-75 CNS = test system: SNB-75 CNS
MALME-3M melanoma = test system: MALME-3M melanoma
OVCAR-4 ovarian = test system: OVCAR-4 ovarian
CAKI-1 renal = test system: CAKI-1 renal
SK-MEL-28 melanoma = test system: SK-MEL-28 melanoma
A498 renal = test system: A498 renal
MDA-MB-231 breast = test system: MDA-MB-231 breast
KM12 colon = test system: KM12 colon
A549 NSCLC = test system: A549 NSCLC
SN12C renal = test system: SN12C renal
HL-60(TB) leukemia = test system: HL-60(TB) leukemia
SR leukemia = test system: SR leukemia
LOX IMVI melanoma = test system: LOX IMVI melanoma
NCI-H226 lung = test system: NCI-H226 lung
SF-539 CNS = test system: SF-539 CNS

In the case of `Cc1cc(-c2ccc[nH]2)on1`, the TGI (NCI-H23 lung) is reported as > 100 µM, the TGI (NCI-H460 lung) is reported as > 100 µM and the TGI (OVCAR-5 ovarian) is reported as > 100 µM. The TGI (NCI/ADR-RES ovarian) was > 100 µM, the TGI (UACC-62 melanoma) was > 100 µM and the TGI (SK-MEL-2 melanoma) was > 100 µM. The TGI (SK-OV-3 ovarian) was > 100 µM, the TGI (OVCAR-8 ovarian) was > 100 µM and the TGI (NCI-H522 lung) was > 100 µM. The TGI (PC-3 prostate) was > 100 µM, the TGI (MCF7 breast) was > 100 µM and the TGI (HOP-62 NSCLC) was > 100 µM. The TGI (UACC-257 melanoma) was > 100 µM, the TGI (HOP-92 NSCLC) was > 100 µM and the TGI (K-562 leukemia) was > 100 µM. For the same compound, the TGI (HS 578T breast) was > 100 µM, the TGI (ACHN renal) was > 100 µM and the TGI (RXF 393 renal) was > 100 µM. For the same compound, the TGI (IGROV1 ovarian) was > 100 µM, the TGI (U251 CNS) was > 100 µM and the TGI (COLO 205 colon) was > 100 µM. The TGI (MOLT-4 leukemia) was > 100 µM, the TGI (TK-10 renal) was > 100 µM and the TGI (MDA-N) was > 100 µM. The TGI (EKVX NSCLC) was > 100 µM, the TGI (OVCAR-3 ovarian) was > 100 µM and the TGI (HCT-15 colon) was > 100 µM. The TGI (UO-31 renal) was > 100 µM, the TGI (SF-268 CNS) was > 100 µM and the TGI (HCT-116 colon) was > 100 µM. For the same compound, the TGI (BT-549 breast) was > 100 µM, the TGI (CCRF-CEM leukemia) was > 100 µM and the TGI (SW-620 colon) was > 100 µM. For the same compound, the TGI (M14 melanoma) was > 100 µM, the TGI (786-0 renal) was > 100 µM and the TGI (RPMI-8226 leukemia) was > 100 µM. For the same compound, the TGI (SNB-19 CNS) was > 100 µM, the TGI (HCC-2998 colon) was > 100 µM and the TGI (SF-295 CNS) was > 100 µM. The TGI (MDA-MB-435) was > 100 µM, the TGI (DU-145 prostate) was > 100 µM and the TGI (SK-MEL-5 melanoma) was > 100 µM. For the same compound, the TGI (HT29 colon) was > 100 µM, the TGI (SNB-75 CNS) was > 100 µM and the TGI (MALME-3M melanoma) was > 100 µM. The TGI (OVCAR-4 ovarian) was > 100 µM, the TGI (CAKI-1 renal) was > 100 µM and the TGI (SK-MEL-28 melanoma) was > 100 µM. For the same compound, the TGI (A498 renal) was > 100 µM, the TGI (MDA-MB-231 breast) was > 100 µM and the TGI (KM12 colon) was > 100 µM. For the same compound, the TGI (A549 NSCLC) was > 100 µM.
`O=C(c1cc(Cl)ccc1Cl)N1CCN(c2ccc(Cl)c(Cl)c2)CC1` was tested, and the TGI (NCI-H23 lung) was > 100 µM, the TGI (NCI-H460 lung) was 36.1 µM and the TGI (OVCAR-5 ovarian) was > 100 µM. The TGI (SN12C renal) was > 100 µM, the TGI (OVCAR-8 ovarian) was 45.5 µM and the TGI (NCI-H522 lung) was 52.6 µM. For the same compound, the TGI (PC-3 prostate) was 97.8 µM, the TGI (HL-60(TB) leukemia) was > 100 µM and the TGI (MCF7 breast) was 72 µM. The TGI (HOP-62 NSCLC) was > 100 µM, the TGI (UACC-257 melanoma) was 83.9 µM and the TGI (HOP-92 NSCLC) was > 100 µM. For the same compound, the TGI (K-562 leukemia) was 85.4 µM, the TGI (SR leukemia) was > 100 µM and the TGI (HS 578T breast) was > 100 µM. The TGI (ACHN renal) was > 100 µM, the TGI (RXF 393 renal) was 54.1 µM and the TGI (IGROV1 ovarian) was > 100 µM. The TGI (U251 CNS) was > 100 µM, the TGI (MOLT-4 leukemia) was 54.3 µM and the TGI (TK-10 renal) was > 100 µM. For the same compound, the TGI (MDA-N) was 96.2 µM, the TGI (EKVX NSCLC) was > 100 µM and the TGI (OVCAR-3 ovarian) was > 100 µM. For the same compound, the TGI (HCT-15 colon) was > 100 µM, the TGI (UO-31 renal) was 33.8 µM and the TGI (SF-268 CNS) was > 100 µM. The TGI (HCT-116 colon) was > 100 µM, the TGI (BT-549 breast) was 80.8 µM and the TGI (CCRF-CEM leukemia) was > 100 µM. The TGI (SW-620 colon) was > 100 µM, the TGI (786-0 renal) was 48.5 µM and the TGI (RPMI-8226 leukemia) was > 100 µM. For the same compound, the TGI (HCC-2998 colon) was > 100 µM, the TGI (SF-295 CNS) was > 100 µM and the TGI (DU-145 prostate) was > 100 µM. It also gave a TGI (SK-MEL-5 melanoma) of 30.3 µM, a TGI (HT29 colon) of 83.9 µM and a TGI (LOX IMVI melanoma) of 84.1 µM. The TGI (SNB-75 CNS) was > 100 µM, the TGI (NCI-H226 lung) was > 100 µM and the TGI (MALME-3M melanoma) was > 100 µM. The TGI (OVCAR-4 ovarian) was > 100 µM, the TGI (CAKI-1 renal) was > 100 µM and the TGI (SK-MEL-28 melanoma) was > 100 µM. For the same compound, the TGI (A498 renal) was 44.1 µM, the TGI (MDA-MB-231 breast) was > 100 µM and the TGI (KM12 colon) was 51.9 µM. The TGI (SF-539 CNS) was 76.4 µM and the TGI (A549 NSCLC) was > 100 µM.
For `CC(C)CC(NC(=O)C(CSc1ccc([N+](=O)[O-])cc1)Cc1ccccc1)C(=O)Nc1ccccc1` (stereo not given), the TGI (NCI-H23 lung) was > 100 µM, the TGI (NCI-H460 lung) was > 100 µM and the TGI (OVCAR-5 ovarian) was > 100 µM. The TGI (NCI/ADR-RES ovarian) was > 100 µM, the TGI (UACC-62 melanoma) was > 100 µM and the TGI (SN12C renal) was > 100 µM. The TGI (SK-MEL-2 melanoma) was > 100 µM, the TGI (SK-OV-3 ovarian) was > 100 µM and the TGI (OVCAR-8 ovarian) was > 100 µM. For the same compound, the TGI (NCI-H522 lung) was > 100 µM, the TGI (PC-3 prostate) was > 100 µM and the TGI (HL-60(TB) leukemia) was > 100 µM. For the same compound, the TGI (MCF7 breast) was > 100 µM, the TGI (UACC-257 melanoma) was > 100 µM and the TGI (HOP-92 NSCLC) was > 100 µM. The TGI (K-562 leukemia) was > 100 µM, the TGI (SR leukemia) was > 100 µM and the TGI (ACHN renal) was > 100 µM. For the same compound, the TGI (RXF 393 renal) was > 100 µM, the TGI (IGROV1 ovarian) was > 100 µM and the TGI (U251 CNS) was > 100 µM. For the same compound, the TGI (COLO 205 colon) was > 100 µM, the TGI (MOLT-4 leukemia) was > 100 µM and the TGI (TK-10 renal) was > 100 µM. For the same compound, the TGI (MDA-N) was > 100 µM, the TGI (EKVX NSCLC) was > 100 µM and the TGI (OVCAR-3 ovarian) was > 100 µM. For the same compound, the TGI (HCT-15 colon) was > 100 µM, the TGI (UO-31 renal) was > 100 µM and the TGI (HCT-116 colon) was > 100 µM. For the same compound, the TGI (BT-549 breast) was 59.5 µM, the TGI (CCRF-CEM leukemia) was > 100 µM and the TGI (SW-620 colon) was > 100 µM. The TGI (M14 melanoma) was > 100 µM, the TGI (786-0 renal) was > 100 µM and the TGI (RPMI-8226 leukemia) was > 100 µM. The TGI (SNB-19 CNS) was > 100 µM, the TGI (HCC-2998 colon) was > 100 µM and the TGI (SF-295 CNS) was > 100 µM. For the same compound, the TGI (MDA-MB-435) was > 100 µM, the TGI (DU-145 prostate) was > 100 µM and the TGI (SK-MEL-5 melanoma) was > 100 µM. For the same compound, the TGI (LOX IMVI melanoma) was > 100 µM, the TGI (SNB-75 CNS) was 65.1 µM and the TGI (MALME-3M melanoma) was 80.5 µM. For the same compound, the TGI (OVCAR-4 ovarian) was > 100 µM, the TGI (CAKI-1 renal) was > 100 µM and the TGI (SK-MEL-28 melanoma) was > 100 µM. The TGI (A498 renal) was > 100 µM, the TGI (MDA-MB-231 breast) was > 100 µM and the TGI (KM12 colon) was > 100 µM. The TGI (SF-539 CNS) was > 100 µM and the TGI (A549 NSCLC) was > 100 µM.
